Columns and labels:
Type in all cases: biochemical
[1] = biological target: T1, JAK3 (Homo sapiens, UniProt P52333); assay: JAK enzymatic assay (peptide mobility shift), JAK3; settings: recombinant JAK3 1 nM, ATP 4 μM, 1 μM JAKtide peptide, 90 minutes
T1 construct: purchased Invitrogen Corporation, Madison, Wis; PV3855
T1 sequence (P52333 1-1124): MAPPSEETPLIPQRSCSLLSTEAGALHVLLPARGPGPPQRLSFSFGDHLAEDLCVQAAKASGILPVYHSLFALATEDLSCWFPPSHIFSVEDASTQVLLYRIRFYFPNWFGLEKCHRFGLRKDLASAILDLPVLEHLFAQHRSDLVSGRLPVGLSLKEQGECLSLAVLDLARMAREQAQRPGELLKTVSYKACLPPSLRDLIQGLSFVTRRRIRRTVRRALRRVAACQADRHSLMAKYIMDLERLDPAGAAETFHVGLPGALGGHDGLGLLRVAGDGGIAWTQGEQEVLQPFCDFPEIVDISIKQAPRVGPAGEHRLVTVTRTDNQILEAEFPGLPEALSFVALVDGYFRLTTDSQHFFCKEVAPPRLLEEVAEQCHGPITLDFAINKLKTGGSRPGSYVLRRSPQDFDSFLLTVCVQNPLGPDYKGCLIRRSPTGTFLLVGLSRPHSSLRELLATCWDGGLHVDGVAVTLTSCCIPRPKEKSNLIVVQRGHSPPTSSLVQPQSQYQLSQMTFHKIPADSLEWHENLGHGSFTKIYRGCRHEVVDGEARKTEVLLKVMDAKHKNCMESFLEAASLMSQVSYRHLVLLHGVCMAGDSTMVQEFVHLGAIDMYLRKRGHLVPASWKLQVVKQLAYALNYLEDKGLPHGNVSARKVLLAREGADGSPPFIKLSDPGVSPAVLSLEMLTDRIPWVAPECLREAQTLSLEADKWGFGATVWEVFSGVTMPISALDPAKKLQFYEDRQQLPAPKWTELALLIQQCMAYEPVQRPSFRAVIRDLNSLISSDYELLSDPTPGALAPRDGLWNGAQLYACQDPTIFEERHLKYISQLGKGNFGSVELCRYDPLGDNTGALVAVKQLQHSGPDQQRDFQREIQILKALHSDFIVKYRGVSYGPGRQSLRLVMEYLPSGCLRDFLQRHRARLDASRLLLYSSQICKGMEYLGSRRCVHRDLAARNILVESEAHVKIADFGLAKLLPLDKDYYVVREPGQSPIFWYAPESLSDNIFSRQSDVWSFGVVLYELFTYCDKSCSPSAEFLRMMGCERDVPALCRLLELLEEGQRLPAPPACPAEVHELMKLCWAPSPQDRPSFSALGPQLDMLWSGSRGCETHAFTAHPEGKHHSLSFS
Description: Recombinant JAK1 (Catalog Number PV4775), JAK2 (Catalog Number PV4210) and JAK3 (Catalog Number PV3855) were purchased from (Invitrogen Corporation, Madison, Wis.). Tyk2 (His-Tyk2 (888-1182, C936S, C1142S)) used in this study was expressed and purified at Pfizer Laboratories. Adenosine 5′-triphosphate (ATP) was obtained from (Sigma Chemical Company, St. Louis, Mo.). […] Coating Reagent 3 was purchased from (Caliper Life Sciences, Hopkinton, Mass.).
(§1) A peptide mobility shift assay was used to quantify the phosphorylation of the JAKtide (JAK2 and JAK3) or the IRS-1 peptide ([…] and Tyk2). Reactions were carried out in a 384-well plate (Matrical MP-101) in a 10 μL total volume. Reaction mixtures contained 20 mM HEPES, pH 7.4, 10 mM magnesium chloride, 0.01% bovine serum albumin (BSA), 0.0005% Tween-20, ATP (4 μM for JAK2 and JAK3, 40 μM for JAK1 and 7 μM for Tyk2)), 2% DMSO and 1 μM peptide substrate (JAKtide for JAK2 and JAK3 and IRS-1 peptide for JAK1 and Tyk2). Compounds were diluted serially in 100% dimethyl sulfoxide and tested in an 11 point dose response in duplicate or quadruplicate (200 nl of compound/DMSO was added per 10 μL reaction). The reactions were initiated by the addition of enzyme to the final concentration of 2 nM JAK2, 1 nM JAK3, 12 nM Tyk2 or 20 nM JAK1. The assay was run for 240 minutes for JAK1, 150 minutes for JAK2, 90 minutes for JAK3 and 70 minutes for Tyk2. The assays were stopped at the specified times with 20 uL of 140 mM HEPES, 22.5 mM EDTA and 0.15% Coating Reagent 3. The plates were placed on a LabChip 3000 (LC3000) instrument from (Caliper Life Sciences) to measure the formation of phosphorylated peptide. Data was analyzed using Hits Well Analyzer Software from (Caliper Life Sciences) to obtain the amount of product formed.
(§2) Data was then imported into an internal application where each data point is expressed as % inhibition based on uninhibited and no enzyme controls. Dose-response data is then fit using a 4 parameter logistic equation (Equation 1) to determine an IC50.
(§3) Where max is the fitted uninhibited value, min is the fitted complete inhibition value, and s is the slope factor.

[2] = biological target: T2, JAK2 (Homo sapiens, UniProt O60674); assay: JAK enzymatic assay (peptide mobility shift), JAK2; settings: recombinant JAK2 2 nM, ATP 4 μM, 1 μM JAKtide peptide, 150 minutes
T2 construct: purchased Invitrogen Corporation, Madison, Wis; PV4210
T2 sequence (O60674 whole entry): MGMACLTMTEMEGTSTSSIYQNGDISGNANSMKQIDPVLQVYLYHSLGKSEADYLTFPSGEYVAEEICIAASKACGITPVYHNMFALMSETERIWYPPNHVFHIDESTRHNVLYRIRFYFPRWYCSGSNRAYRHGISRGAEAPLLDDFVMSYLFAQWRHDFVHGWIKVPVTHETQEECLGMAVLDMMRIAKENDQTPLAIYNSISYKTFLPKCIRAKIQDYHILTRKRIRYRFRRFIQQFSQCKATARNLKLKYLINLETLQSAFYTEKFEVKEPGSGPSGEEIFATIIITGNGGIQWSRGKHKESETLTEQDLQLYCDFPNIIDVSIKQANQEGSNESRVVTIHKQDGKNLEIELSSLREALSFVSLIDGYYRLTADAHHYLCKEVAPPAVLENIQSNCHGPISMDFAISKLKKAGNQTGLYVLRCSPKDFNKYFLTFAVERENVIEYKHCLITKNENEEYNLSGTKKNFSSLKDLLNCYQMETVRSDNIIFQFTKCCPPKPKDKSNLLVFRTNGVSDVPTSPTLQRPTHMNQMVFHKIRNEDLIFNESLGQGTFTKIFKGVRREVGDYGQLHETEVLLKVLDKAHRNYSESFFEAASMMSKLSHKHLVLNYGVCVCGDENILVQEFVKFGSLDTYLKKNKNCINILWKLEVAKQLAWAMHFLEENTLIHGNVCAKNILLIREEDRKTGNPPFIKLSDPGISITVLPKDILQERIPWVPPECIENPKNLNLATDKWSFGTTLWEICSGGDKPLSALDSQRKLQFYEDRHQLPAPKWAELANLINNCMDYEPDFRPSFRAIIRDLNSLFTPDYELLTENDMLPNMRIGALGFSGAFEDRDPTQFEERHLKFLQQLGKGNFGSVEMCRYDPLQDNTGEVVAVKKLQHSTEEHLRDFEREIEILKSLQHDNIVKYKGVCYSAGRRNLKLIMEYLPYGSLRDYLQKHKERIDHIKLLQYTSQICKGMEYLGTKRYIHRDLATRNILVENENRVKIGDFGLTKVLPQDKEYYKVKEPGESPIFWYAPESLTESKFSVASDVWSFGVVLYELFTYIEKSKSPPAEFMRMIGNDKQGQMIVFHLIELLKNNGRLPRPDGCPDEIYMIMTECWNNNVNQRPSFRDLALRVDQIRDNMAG
Description: (§4) Recombinant JAK1 (Catalog Number PV4775), JAK2 (Catalog Number PV4210) and JAK3 (Catalog Number PV3855) were purchased from (Invitrogen Corporation, Madison, Wis.). Tyk2 (His-Tyk2 (888-1182, C936S, C1142S)) used in this study was expressed and purified at Pfizer Laboratories. Adenosine 5′-triphosphate (ATP) was obtained from (Sigma Chemical Company, St. Louis, Mo.). The JAKtide peptide (peptide sequence, FITC-[…]) used for the JAK2 and JAK3 assays and the IRS-1 peptide (peptide sequence, 5-FAM-[…]) used for the JAK1 and Tyk2 assays were purchased from (American Peptide Company, Sunnyvale, Calif.). Coating Reagent 3 was purchased from (Caliper Life Sciences, Hopkinton, Mass.).
as §1, §2, §3

[3] = biological target: T3, JAK1 (Homo sapiens, UniProt P23458); assay: JAK enzymatic assay (peptide mobility shift), JAK1; settings: recombinant JAK1 20 nM, ATP 40 μM, 1 μM IRS-1 peptide, 240 minutes
T3 construct: purchased Invitrogen Corporation, Madison, Wis; PV4775
T3 sequence (P23458 whole entry): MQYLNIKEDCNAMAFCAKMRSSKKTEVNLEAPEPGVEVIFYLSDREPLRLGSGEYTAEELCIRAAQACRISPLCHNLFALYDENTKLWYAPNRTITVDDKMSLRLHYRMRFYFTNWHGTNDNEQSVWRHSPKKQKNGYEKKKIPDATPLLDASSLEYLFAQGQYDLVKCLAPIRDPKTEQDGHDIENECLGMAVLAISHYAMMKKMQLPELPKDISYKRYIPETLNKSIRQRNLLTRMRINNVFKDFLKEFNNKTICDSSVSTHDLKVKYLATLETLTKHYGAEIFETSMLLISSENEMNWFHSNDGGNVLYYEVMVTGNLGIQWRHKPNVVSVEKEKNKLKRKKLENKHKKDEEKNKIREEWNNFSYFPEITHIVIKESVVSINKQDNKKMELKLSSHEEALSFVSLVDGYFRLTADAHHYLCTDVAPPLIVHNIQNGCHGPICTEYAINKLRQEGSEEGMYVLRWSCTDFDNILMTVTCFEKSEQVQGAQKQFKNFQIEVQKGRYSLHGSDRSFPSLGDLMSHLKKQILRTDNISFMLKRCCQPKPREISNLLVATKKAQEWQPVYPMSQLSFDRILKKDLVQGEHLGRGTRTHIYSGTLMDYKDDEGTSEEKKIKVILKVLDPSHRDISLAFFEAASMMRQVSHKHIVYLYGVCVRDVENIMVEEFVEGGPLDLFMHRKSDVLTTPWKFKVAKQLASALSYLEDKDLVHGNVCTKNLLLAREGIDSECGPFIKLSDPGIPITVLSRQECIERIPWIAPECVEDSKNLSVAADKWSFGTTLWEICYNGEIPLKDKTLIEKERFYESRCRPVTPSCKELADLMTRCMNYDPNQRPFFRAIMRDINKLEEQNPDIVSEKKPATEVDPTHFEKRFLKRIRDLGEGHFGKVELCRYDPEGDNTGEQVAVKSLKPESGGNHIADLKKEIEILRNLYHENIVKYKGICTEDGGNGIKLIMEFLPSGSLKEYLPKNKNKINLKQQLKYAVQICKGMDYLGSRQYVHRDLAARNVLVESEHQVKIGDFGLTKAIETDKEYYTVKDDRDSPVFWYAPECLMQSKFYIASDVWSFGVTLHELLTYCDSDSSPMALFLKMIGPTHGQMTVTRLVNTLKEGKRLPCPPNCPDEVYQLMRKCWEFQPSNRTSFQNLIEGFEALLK
Description: as §4, §1, §2, §3

| SMILES | IC50 [1] [µM] | IC50 [2] [µM] | IC50 [3] [µM] |
| --- | --- | --- | --- |
| CN(c1ncnc2[nH]ccc12)[C@H]1CC[C@H](CS(=O)(=O)NCc2ccccc2)CC1 [Example 16, N-benzyl-1-{trans-4-[methyl-(7H-pyrrolo[2,3-d]pyrimidin-4-yl)amino]-cyclohexyl}-methanesulfonamide] | 0.182 | 0.0294 | 0.0135 |
| COc1ccc(NS(=O)(=O)C[C@H]2CC[C@H](N(C)c3ncnc4[nH]ccc34)CC2)cn1 [Example 28, N-(6-methoxypyridin-3-yl)-1-{trans-4-[methyl(7H-pyrrolo[2,3-d]pyrimidin-4-yl)amino]cyclohexyl}methane-sulfonamide] | 0.121 | 0.0222 | 0.00872 |
| CN(c1ncnc2[nH]ccc12)[C@H]1CC[C@H](CS(=O)(=O)NCCc2ccccc2)CC1 [Example 15, 1-{trans-4-[methyl(7H-pyrrolo-[2,3-d]pyrimidin-4-yl)amino]-cyclohexyl}-N-(2-phenylethyl)-methanesulfonamide] | 0.0878 | 0.012 | 0.00287 |
| CN(c1ncnc2[nH]ccc12)[C@H]1CC[C@H](CS(=O)(=O)N[C@H]2CC[C@H](C(C)(C)O)CC2)CC1 [Example 37, N-[trans-4-(1-hydroxy-1-methylethyl)cyclohexyl]-1-{trans-4-[methyl(7H-pyrrolo[2,3-d]pyrimidin-4-yl)amino]cyclohexyl}-methanesulfonamide] | 0.212 | 0.0333 | 0.00873 |
| COc1ccc(CNS(=O)(=O)C[C@H]2CC[C@@H](N(C)c3ncnc4[nH]ccc34)CC2)cc1 [Example 56, N-(4-methoxybenzyl)-1-{cis-4-[methyl(7H-pyrrolo[2,3-d]pyrimidin-4-yl)amino]cyclohexyl}-methanesulfonamide] | 0.114 | 0.0366 | 0.0107 |
| CN(c1ncnc2[nH]ccc12)[C@H]1CC[C@H](CS(=O)(=O)N[C@@H]2CCC[C@@H]2c2ccc(F)cc2)CC1 [Example 46, N-[(1R,2R)-2-(4-fluoro-phenyl)cyclopentyl]-1-{trans-4-[methyl(7H-pyrrolo[2,3-d]pyrimidin-4-yl)amino]cyclohexyl}-methanesulfonamide] | 0.355 | 0.0184 | 0.0156 |
| CN(c1ncnc2[nH]ccc12)[C@H]1CC[C@H](CS(=O)(=O)NCCc2cccc(F)c2)CC1 [Example 33, N-[2-(3-fluorophenyl)ethyl]-1-{trans-4-[methyl(7H-pyrrolo[2,3-d]pyrimidin-4-yl)amino]cyclohexyl}-methanesulfonamide] | 0.192 | 0.0242 | 0.00495 |
| CN(c1ncnc2[nH]ccc12)[C@H]1CC[C@H](CS(=O)(=O)NCC(C)(F)c2ccc(F)cc2)CC1 (stereo partly drawn) [Example 8, N-[2-fluoro-2-(4-fluoro-phenyl)propyl]-1-{trans-4-[methyl(7H-pyrrolo[2,3-d]-pyrimidin-4-yl)amino]-cyclohexyl}-methanesulfonamide] | 0.403 | 0.0323 | 0.00605 |
| CN(c1ncnc2[nH]ccc12)[C@H]1CC[C@H](CS(=O)(=O)Nc2ccn[nH]2)CC1 [Example 22, 1-{trans-4-[methyl(7H-pyrrolo[2,3-d]pyrimidin-4-yl)amino]cyclohexyl}-N-1H-pyrazol-5-yl-methanesulfonamide] | 0.241 | 0.0324 | 0.0152 |
| CN(c1ncnc2[nH]ccc12)[C@H]1CC[C@@H](CS(=O)(=O)NCc2ccccc2)CC1 [Example 54, N-benzyl-1-{cis-4-[methyl(7H-pyrrolo[2,3-d]pyrimidin-4-yl)amino]cyclohexyl}-methanesulfonamide] | 0.162 | 0.0542 | 0.0193 |
| Cc1nn(C)cc1CNS(=O)(=O)C[C@H]1CC[C@H](N(C)c2ncnc3[nH]ccc23)CC1 [Example 52, N-[(1,3-dimethyl-1H-pyrazol-4-yl)methyl]-1-{trans-4-[methyl(7H-pyrrolo[2,3-d]pyrimidin-4-yl)amino]cyclohexyl}-methanesulfonamide] | 0.762 | 0.107 | 0.024 |
| CN(c1ncnc2[nH]ccc12)[C@H]1CC[C@H](CS(=O)(=O)NCC(F)(F)c2ccccc2)CC1 [Example 6, N-(2,2-difluoro-2-phenyl-ethyl)-1-{trans-4-[methyl-(7H-pyrrolo[2,3-d]pyrimidin-4-yl)amino]cyclohexyl}-methanesulfonamide] | 0.101 | 0.0118 | 0.00422 |
| Cc1cc(NS(=O)(=O)C[C@H]2CC[C@H](N(C)c3ncnc4[nH]ccc34)CC2)n[nH]1 [Example 23, N-(5-methyl-1H-pyrazol-3-yl)-1-{trans-4-[methyl(7H-pyrrolo[2,3-d]pyrimidin-4-yl)amino]cyclohexyl}-methanesulfonamide] | 0.342 | 0.0305 | 0.0186 |
| CN(c1ncnc2[nH]ccc12)[C@H]1CC[C@H](CS(=O)(=O)NCCc2ccc(Cl)c(Cl)c2)CC1 [Example 42, N-[2-(3,4-dichlorophenyl)-ethyl]-1-{trans-4-[methyl-(7H-pyrrolo[2,3-d]pyrimidin-4-yl)amino]cyclohexyl}-methanesulfonamide] | 0.427 | 0.0557 | 0.0145 |
| CC(C)c1ccc(CCNS(=O)(=O)C[C@H]2CC[C@H](N(C)c3ncnc4[nH]ccc34)CC2)c(F)c1 [Example 38, N-[2-(2-fluoro-4-isopropylphenyl)ethyl]-1-{trans-4-[methyl(7H-pyrrolo[2,3-d]pyrimidin-4-yl)amino]cyclohexyl}-methanesulfonamide] | 0.145 | 0.0554 | 0.00913 |
| CN(c1ncnc2[nH]ccc12)[C@H]1CC[C@H](CS(=O)(=O)NCCc2ccc(S(N)(=O)=O)cc2)CC1 [Example 2, 4-(2-{[({trans-4-[methyl(7H-pyrrolo[2,3-d]pyrimidin-4-yl)amino]cyclohexyl}methyl)sulfonyl]amino}ethyl)benzene-sulfonamide] | 0.166 | 0.0149 | 0.00182 |

Source: US8372854B2, “Pyrrolo[2,3-D]pyrimidine compounds” (Pfizer Inc., priority 2009, dated 2013)
